In assay [1] the test system is Enterobacterales. Nature of the assay: Antibacterial activity against Carbapenem-Resistant Enterobacterales 19 expressing blaNDM-1 clinical isolates assessed as fold potentiation incubated for 16 to 18 hrs by broth microdilution method. As to conditions: time 16-18 hrs. The class given is functional. (Dilution methods test growth across graded concentrations, often in twofold steps.)

Assay [2] has as its system Escherichia coli. Nature of the assay: Antibacterial activity against Escherichia coli BAA2452 expressing blaNDM-1 clinical isolates assessed as meropenem MIC incubated for 16 to 18 hrs by broth microdilution method. The class given is functional. As to conditions: time 16-18 hrs.
The nature of assay [3]: Inhibition of recombinant VIM-1 (unknown origin) expressed in Escherichia coli (DE3) cells using FC5 as substrate by microplate reader assay.
The test system of assay [4] is Escherichia coli. The assay can be described thus: Antibacterial activity against Escherichia coli C1580 expressing blaIMP-1 clinical isolates assessed as meropenem MIC incubated for 16 to 18 hrs by broth microdilution method. The class given is functional. The following applies: time 16-18 hrs.
For assay [5], the system named is Klebsiella pneumoniae. Nature of the assay: Antibacterial activity against Klebsiella pneumoniae BAA2470 expressing blaNDM-1 clinical isolates assessed as fold potentiation incubated for 16 to 18 hrs by broth microdilution method. The class given is functional. As to conditions: time 16-18 hrs.
The nature of assay [6]: Inhibition of recombinant his tagged VIM-2 (unknown origin) expressed in Escherichia coli (DE3) cells using FC5 as substrate by microplate reader assay.
Assay [7] relates to Escherichia coli. Nature of the assay: Antibacterial activity against Escherichia coli C1541 expressing blaVIM-2 clinical isolates assessed as fold potentiation incubated for 16 to 18 hrs by broth microdilution method. The class given is functional. As to conditions: time 16-18 hrs.
Assay [8] has as its system Klebsiella pneumoniae. Nature of the assay: Antibacterial activity against Klebsiella pneumoniae BAA2470 expressing blaNDM-1 clinical isolates assessed as meropenem MIC incubated for 16 to 18 hrs by broth microdilution method. The class given is functional. The following applies: time 16-18 hrs.
Assay [9] has as its system Escherichia coli. Nature of the assay: Antibacterial activity against Escherichia coli BAA2452 expressing blaNDM-1 clinical isolates assessed as fold potentiation incubated for 16 to 18 hrs by broth microdilution method. The class given is functional. As to conditions: time 16-18 hrs.
A short description of assay [10]: Inhibition of recombinant his tagged IMP1 (unknown origin) expressed in Escherichia coli (DE3) cells using FC5 as substrate by microplate reader assay.
The nature of assay [11]: Inhibition of recombinant NDM1 (unknown origin) expressed in Escherichia coli (DE3) cells using FC5 as substrate by microplate reader assay.
For assay [12], the system named is Enterobacterales. Nature of the assay: Antibacterial activity against Carbapenem-Resistant Enterobacterales 19 expressing blaNDM-1 clinical isolates assessed as meropenem MIC incubated for 16 to 18 hrs by broth microdilution method. The class given is functional. The following applies: time 16-18 hrs.
Assay [13] concerns Escherichia coli. Nature of the assay: Antibacterial activity against Escherichia coli C1580 expressing blaIMP-1 clinical isolates assessed as fold potentiation incubated for 16 to 18 hrs by broth microdilution method. The class given is functional. As to conditions: time 16-18 hrs.
Assay [14] in a line: Inhibition of recombinant VIM-5 (unknown origin) expressed in Escherichia coli (DE3) cells using FC5 as substrate by microplate reader assay.
Assay [15] has as its system Escherichia coli. The assay can be described thus: Antibacterial activity against Escherichia coli C1541 expressing blaVIM-2 clinical isolates assessed as meropenem MIC incubated for 16 to 18 hrs by broth microdilution method. The class given is functional. The following applies: time 16-18 hrs.

pIC50: −log10 of the molar value. Some results are limits rather than exact numbers.

Broadly, the MIC is the least concentration at which growth counts as inhibited. Usually pIC50 stands for the IC50 on a negative log10 scale, so that one unit is a factor of ten.

For `Nc1cccc(-c2cn(-c3cccc(C(c4ccc(Cl)cc4)P(=O)(O)O)c3)nn2)c1` (stereo unspecified), the “fold change (FC)” value is 8 in the assay with Enterobacterales [1]; >2 with Klebsiella pneumoniae [5]; 16 in the assay with Escherichia coli [7]; 8 with Escherichia coli [9]; 16 in the assay on Escherichia coli [13]. The MIC in the assay with Escherichia coli [2] was determined as 16 µg/mL; with Escherichia coli [4], 2 µg/mL; with Klebsiella pneumoniae [8] it was 64 µg/mL; with Enterobacterales [12] it was 8 µg/mL; with Escherichia coli [15], 1 µg/mL. For the same molecule, the pIC50 is 6.47 in assay [3]; 9.00 in assay [6]; 6.27 in assay [10]; 6.17 in [11]; 9.37 in assay [14].

As for `Nc1cccc(-c2cn(-c3cccc(C(c4cccc5ccccc45)P(=O)(O)O)c3)nn2)c1` (stereo unspecified), the “fold change (FC)” value in the assay on Enterobacterales [1] is on record as 16; in the assay with Klebsiella pneumoniae [5], >2; with Escherichia coli [7] it was 16; with Escherichia coli [9], 8; in the assay on Escherichia coli [13] it was 64. Besides, the MIC in the assay with Escherichia coli [2] was found to be 16 µg/mL; in the assay with Escherichia coli [4] it was 0.5 µg/mL; with Klebsiella pneumoniae [8], 64 µg/mL; in the assay with Enterobacterales [12], 4 µg/mL; in the assay with Escherichia coli [15], 1 µg/mL. The pIC50 in assay [3] is 6.89; in assay [6], 8.22; in assay [10], 7.43; in [11], 6.04; in [14], 9.54.

Regarding `Cc1ccc(C(c2cccc(-n3cc(-c4cccc(N)c4)nn3)c2)P(=O)(O)O)cc1` (stereo unspecified), the “fold change (FC)” value is 8 with Enterobacterales [1]; >2 with Klebsiella pneumoniae [5]; 16 in the assay on Escherichia coli [7]; 16 with Escherichia coli [9]; 32 in the assay on Escherichia coli [13]. In addition, the MIC in the assay with Escherichia coli [2] was 8 µg/mL; in the assay on Escherichia coli [4] it was 1 µg/mL; in the assay on Klebsiella pneumoniae [8], 64 µg/mL; in the assay with Enterobacterales [12], 8 µg/mL; in the assay with Escherichia coli [15], 1 µg/mL. The pIC50 was 6.21 in [3]; 9.09 in assay [6]; 7.57 in assay [10]; 5.97 in assay [11]; 9.00 in assay [14].

For the molecule `O=P(O)(O)Cc1cccc(-n2cc(-c3ccccc3Br)nn2)c1`, the “fold change (FC)” value is 4 with Enterobacterales [1]; >1 in the assay with Klebsiella pneumoniae [5]; 4 with Escherichia coli [7]; 4 in the assay with Escherichia coli [9]; 16 in the assay on Escherichia coli [13]. For the same molecule, the MIC is 32 µg/mL in the assay with Escherichia coli [2]; 2 µg/mL with Escherichia coli [4]; 128 µg/mL in the assay on Klebsiella pneumoniae [8]; 16 µg/mL in the assay on Enterobacterales [12]; 4 µg/mL in the assay on Escherichia coli [15]. Further, the pIC50 in assay [3] is 5.15; in [6], 6.14; in assay [10], 5.72; in assay [11], 5.28; in assay [14], 7.02.

On to `Nc1cccc(-c2cn(-c3cccc(C(c4ccc(Br)cc4)P(=O)(O)O)c3)nn2)c1` (stereo unspecified), for which the “fold change (FC)” value in the assay with Enterobacterales [1] is reported as 8; in the assay with Klebsiella pneumoniae [5], >2; with Escherichia coli [7], 16; in the assay on Escherichia coli [9], 8; in the assay with Escherichia coli [13] it was 8. In addition, the MIC is 16 µg/mL in the assay on Escherichia coli [2]; 4 µg/mL with Escherichia coli [4]; 64 µg/mL in the assay on Klebsiella pneumoniae [8]; 8 µg/mL in the assay with Enterobacterales [12]; 1 µg/mL in the assay with Escherichia coli [15]. The pIC50 is 6.70 in [3]; 8.15 in assay [6]; 6.36 in assay [10]; 6.18 in assay [11]; 8.52 in assay [14].

On to `CCc1ccc(C(c2cccc(-n3cc(-c4cccc(N)c4)nn3)c2)P(=O)(O)O)cc1` (stereo unspecified), for which the “fold change (FC)” value with Enterobacterales [1] was 8; with Klebsiella pneumoniae [5], >2; in the assay with Escherichia coli [7] it was 16; with Escherichia coli [9], 16; with Escherichia coli [13], 8. The MIC came out at 8 µg/mL in the assay with Escherichia coli [2]; 4 µg/mL in the assay with Escherichia coli [4]; 64 µg/mL in the assay with Klebsiella pneumoniae [8]; 8 µg/mL in the assay with Enterobacterales [12]; 1 µg/mL in the assay with Escherichia coli [15]. The pIC50 in assay [3] is 5.86; in [6], 8.22; in assay [10] it was 6.77; in assay [11], 6.19; in [14] it was 8.15.

As to `Nc1cccc(-c2cn(-c3cccc(CP(=O)(O)O)c3)nn2)c1`, the “fold change (FC)” value in the assay on Enterobacterales [1] is listed as 4; in the assay on Klebsiella pneumoniae [5], >1; in the assay on Escherichia coli [7], 4; in the assay with Escherichia coli [9], 4; with Escherichia coli [13], 16. Besides, the MIC with Escherichia coli [2] was determined as 32 µg/mL; with Escherichia coli [4], 2 µg/mL; in the assay with Klebsiella pneumoniae [8] it was 128 µg/mL; in the assay on Enterobacterales [12], 16 µg/mL; in the assay on Escherichia coli [15], 4 µg/mL. The pIC50 was 5.66 in [3]; 7.04 in [6]; 5.71 in assay [10]; 5.14 in [11]; 7.72 in assay [14].

As to `COc1ccc(C(c2cccc(-n3cc(-c4cccc(N)c4)nn3)c2)P(=O)(O)O)cc1` (stereo unspecified), the “fold change (FC)” value in the assay on Enterobacterales [1] was 8; in the assay with Klebsiella pneumoniae [5], >2; with Escherichia coli [7], 8; with Escherichia coli [9] it was 8; in the assay on Escherichia coli [13], 32. Besides, the MIC in the assay with Escherichia coli [2] was 16 µg/mL; in the assay on Escherichia coli [4], 1 µg/mL; in the assay with Klebsiella pneumoniae [8], 64 µg/mL; with Enterobacterales [12] it was 8 µg/mL; in the assay with Escherichia coli [15] it was 2 µg/mL. For the same molecule, the pIC50 is 5.91 in assay [3]; 7.28 in assay [6]; 5.49 in [10]; 5.09 in [11]; 7.60 in assay [14].

Regarding `Nc1cccc(-c2cn(-c3cccc(C(c4ccc(-c5ccc(Br)cc5)cc4)P(=O)(O)O)c3)nn2)c1` (stereo unspecified), the “fold change (FC)” value was 8 with Enterobacterales [1]; >2 in the assay with Klebsiella pneumoniae [5]; 8 in the assay on Escherichia coli [7]; 16 with Escherichia coli [9]; 32 with Escherichia coli [13]. The MIC in the assay with Escherichia coli [2] was determined as 8 µg/mL; in the assay on Escherichia coli [4], 1 µg/mL; with Klebsiella pneumoniae [8] it was 64 µg/mL; with Enterobacterales [12] it was 8 µg/mL; with Escherichia coli [15], 2 µg/mL. In addition, the pIC50 was 5.77 in [3]; 8.10 in [6]; 4.92 in assay [10]; 5.31 in assay [11]; 8.70 in assay [14].

For `O=P(O)(O)Cc1cccc(-n2cc(-c3ccc(Br)cc3)nn2)c1`, the “fold change (FC)” value in the assay with Enterobacterales [1] is reported as 4; in the assay on Klebsiella pneumoniae [5], >1; in the assay on Escherichia coli [7], 4; in the assay with Escherichia coli [9], 4; in the assay on Escherichia coli [13] it was 16. Further, the MIC in the assay on Escherichia coli [2] was 32 µg/mL; in the assay on Escherichia coli [4], 2 µg/mL; in the assay with Klebsiella pneumoniae [8], 128 µg/mL; in the assay with Enterobacterales [12], 16 µg/mL; in the assay with Escherichia coli [15], 4 µg/mL. The pIC50 in assay [3] was 4.94; in [6], 7.12; in assay [10], 5.48; in [11], 4.95; in assay [14] it was 7.30.

For `Nc1cccc(-c2cn(-c3cccc(C(c4ccc(F)cc4)P(=O)(O)O)c3)nn2)c1` (stereo unspecified), the “fold change (FC)” value in the assay on Enterobacterales [1] is given as 8; in the assay on Klebsiella pneumoniae [5], >2; in the assay on Escherichia coli [7], 32; in the assay on Escherichia coli [9] it was 8; in the assay on Escherichia coli [13], 16. For the same molecule, the MIC in the assay on Escherichia coli [2] is 16 µg/mL; with Escherichia coli [4], 2 µg/mL; in the assay on Klebsiella pneumoniae [8], 64 µg/mL; with Enterobacterales [12], 8 µg/mL; with Escherichia coli [15], 0.5 µg/mL. Moreover, the pIC50 in assay [3] was 6.36; in assay [6] it was 8.22; in assay [10] it was 6.15; in [11], 5.70; in assay [14], 9.00.

With `Cc1ccc(-c2ccc(C(c3cccc(-n4cc(-c5cccc(N)c5)nn4)c3)P(=O)(O)O)cc2)cc1` (stereo unspecified), the “fold change (FC)” value in the assay on Enterobacterales [1] was 8; with Klebsiella pneumoniae [5], >2; with Escherichia coli [9] it was 8; with Escherichia coli [13], 16. Further, the MIC turned out to be 16 µg/mL with Escherichia coli [2], 2 µg/mL in the assay on Escherichia coli [4], 64 µg/mL in the assay on Klebsiella pneumoniae [8] and 8 µg/mL with Enterobacterales [12]. Further, the pIC50 in assay [3] was 6.18; in assay [6] it was 9.18; in assay [10], 6.37; in assay [11] it was 6.23; in [14], 8.70.

With `NCCOc1ccc(-c2cn(-c3cccc(C(=O)O)c3C(=O)O)nn2)cc1`, the “fold change (FC)” value in the assay on Enterobacterales [1] was determined as 1; with Escherichia coli [9] it was 2; with Escherichia coli [13] it was 128. Besides, the MIC in the assay on Escherichia coli [2] was 64 µg/mL; with Escherichia coli [4], 0.25 µg/mL; with Klebsiella pneumoniae [8] it was > 128 µg/mL; in the assay with Enterobacterales [12] it was 64 µg/mL; in the assay on Escherichia coli [15] it was 32 µg/mL. Further, the pIC50 was < 4.00 in [3]; 5.43 in [6]; 5.74 in [10]; < 4.00 in assay [11]; < 4.00 in [14].
